Measured values as given in PubChem BioAssay AID652018 (The Scripps Research Institute Molecular Screening Center, 2013).
Active and inactive are the calls of the source.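 How the source made its calls: active means at least 50% inhibition of LYPLA1 or LYPLA2 at 300 nM, with no off-target enzyme hit at any dose; inactive means under 50% inhibition on both enzymes, or any off-target hit.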

Experiments:
[1] = target: Acyl-protein thioesterase 1 (Homo sapiens) (UniProt O75608); assay: LYPLA1/LYPLA2 inhibition and anti-target count – cell lysate, competitive ABPP, HEK293T proteome, set 2, selectivity assay for LYPLA1 inhibitor project, late-stage follow-up (AID 652018); conditions: competitive ABPP FP-PEG-Rh gel, stronger effect = higher value;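 further: 0% = DMSO-only band intensity and 100% = blank gel background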
Sequence of Acyl-protein thioesterase 1 (Homo sapiens) (O75608 whole entry, looked up): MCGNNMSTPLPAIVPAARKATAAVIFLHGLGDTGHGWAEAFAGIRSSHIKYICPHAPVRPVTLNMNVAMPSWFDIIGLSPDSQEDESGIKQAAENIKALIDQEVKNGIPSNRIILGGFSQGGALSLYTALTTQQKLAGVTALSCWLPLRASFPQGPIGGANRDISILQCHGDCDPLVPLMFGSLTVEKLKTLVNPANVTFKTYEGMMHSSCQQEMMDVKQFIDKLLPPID

[2] = target: Acyl-protein thioesterase 2 (Homo sapiens) (UniProt O95372); assay: as above; conditions: competitive ABPP FP-PEG-Rh gel, stronger effect = higher value
Sequence of Acyl-protein thioesterase 2 (Homo sapiens) (O95372 whole entry, looked up): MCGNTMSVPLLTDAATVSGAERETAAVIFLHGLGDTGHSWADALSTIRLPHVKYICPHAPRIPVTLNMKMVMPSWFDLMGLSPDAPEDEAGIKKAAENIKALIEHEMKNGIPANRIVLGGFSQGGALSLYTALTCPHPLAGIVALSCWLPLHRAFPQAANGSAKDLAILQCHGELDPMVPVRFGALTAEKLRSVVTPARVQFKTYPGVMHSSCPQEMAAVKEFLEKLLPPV

Row | SMILES | inhibition ([1]; LYPLA1, at 10 µM) | inhibition ([1]; LYPLA1, inhibition, at 0.3 µM) | inhibition ([1]; LYPLA1, inhibition, at 1 µM) | inhibition ([2]; LYPLA2, at 10 µM) | inhibition ([2]; LYPLA2, inhibition, at 0.3 µM) | inhibition ([2]; LYPLA2, inhibition, at 1 µM)
1 | O=C(CN1CCN(C(=O)n2cc(-c3ccc(OC(F)(F)F)cc3)nn2)CC1)Nc1cc(C(F)(F)F)ccc1Cl | 60% (inactive) | 30% | 30% | 30% (inactive) | 30% | 30%
2 | O=C(CN1CCN(C(=O)n2ncc(C(O)(c3ccccc3)c3ccccc3)n2)CC1)Nc1cc(C(F)(F)F)ccc1Cl | 95% | 95% | 95% | 100% | 100% | 100%
3 | O=C(CN1CCN(C(=O)n2cc(C(O)(c3ccccc3)c3ccccc3)nn2)CC1)Nc1cc(C(F)(F)F)ccc1Cl | 95% | 80% | 90% | 100% | 60% | 85%
4 | O=C(CN1CCN(C(=O)n2cncn2)CC1)Nc1cc(C(F)(F)F)ccc1Cl | 30% (inactive) | 30% | 30% | 30% (inactive) | 30% | 30%
5 | O=C(N1CCN(c2ccc(Br)cc2)CC1)n1ncc(C(O)(c2ccccc2)c2ccccc2)n1 | 100% (inactive) | 40% | 90% | 80% (inactive) | 20% | 30%
6 | O=C(CN1CCN(C(=O)n2ncc(-c3ccc(OC(F)(F)F)cc3)n2)CC1)Nc1cc(C(F)(F)F)ccc1Cl | 90% (inactive) | 30% | 30% | 95% (inactive) | 30% | 30%
7 | O=C(CN1CCN(C(=O)n2nc(Br)c(Br)n2)CC1)Nc1cc(C(F)(F)F)ccc1Cl | 95% | 90% | 90% | 100% | 85% | 100%
8 | COc1ccc(N2CCN(C(=O)n3ncc(C(O)(c4ccccc4)c4ccccc4)n3)CC2)cc1 | 95% | 95% | 95% | 100% | 75% | 100%
9 | O=C(CN1CCN(C(=O)n2nccn2)CC1)Nc1cc(C(F)(F)F)ccc1Cl | 95% (inactive) | 30% | 60% | 95% (inactive) | 30% | 40%
10 | O=C(CN1CCN(C(=O)n2nc(Br)nc2Br)CC1)Nc1cc(C(F)(F)F)ccc1Cl | 95% (inactive) | 45% | 85% | 100% (inactive) | 40% | 75%
11 | COc1ccc(N2CCN(C(=O)n3nc(Br)c(Br)n3)CC2)cc1 | 95% | 85% | 95% | 100% | 50% | 80%
12 | COc1ccc(N2CCN(C(=O)n3nc(Br)nc3Br)CC2)cc1 | 95% (inactive) | 20% | 60% | 95% (inactive) | 10% | 30%
13 | COc1ccc(N2CCN(C(=O)n3cc(-c4ccc(OC(F)(F)F)cc4)nn3)CC2)cc1 | 80% (inactive) | 20% | 20% | 60% (inactive) | 10% | 10%
14 | COc1ccc(N2CCN(C(=O)n3ccnn3)CC2)cc1 | 90% (inactive) | 20% | 50% | 85% (inactive) | 10% | 30%
15 | COc1ccc(N2CCN(C(=O)n3cc(C(O)(c4ccccc4)c4ccccc4)nn3)CC2)cc1 | 95% | 85% | 95% | 100% (inactive) | 20% | 95%
16 | COc1ccc(N2CCN(C(=O)n3ncc(-c4ccc(OC(F)(F)F)cc4)n3)CC2)cc1 | 20% (inactive) | 10% | 10% | 20% (inactive) | 10% | 10%
17 | COc1ccc(N2CCN(C(=O)n3ncc(-c4ccccc4)n3)CC2)cc1 | 30% (inactive) | 20% | 30% | 30% (inactive) | 10% | 30%
18 | COc1ccc(N2CCN(C(=O)n3cncn3)CC2)cc1 | 95% (inactive) | 20% | 75% | 95% (inactive) | 10% | 30%
19 | O=C(CN1CCN(C(=O)n2ncc(-c3ccc(-c4ccccc4)cc3)n2)CC1)Nc1cc(C(F)(F)F)ccc1Cl | 30% (inactive) | 30% | 30% | 30% (inactive) | 30% | 30%
20 | COc1ccc(N2CCN(C(=O)n3nccn3)CC2)cc1 | 95% (inactive) | 20% | 80% | 100% (inactive) | 10% | 60%
21 | O=C(N1CCN(c2ccc(Cl)c(Cl)c2)CC1)n1ncc(C(O)(c2ccccc2)c2ccccc2)n1 | 80% (inactive) | 30% | 40% | 30% (inactive) | 20% | 30%
22 | O=C(CN1CCN(C(=O)n2cc(-c3ccc(-c4ccccc4)cc3)nn2)CC1)Nc1cc(C(F)(F)F)ccc1Cl | 30% (inactive) | 30% | 30% | 30% (inactive) | 30% | 30%
23 | O=C(CN1CCN(C(=O)n2ncc(-c3ccc(Br)cc3)n2)CC1)Nc1cc(C(F)(F)F)ccc1Cl | 80% | 70% | 70% | 75% | 50% | 40%
